# Measured values as given in ChEMBL document CHEMBL5360532, “Current scenario of quinolone hybrids with potential antibacterial activity against ESKAPE pathogens” (Eur J Med Chem, 2023).
# Columns and labels:
# [1] = system: Staphylococcus aureus; experiment: Antibacterial activity against Staphylococcus aureus ATCC 25923 assessed as bacterial growth inhibition measured after 24 hrs by agar dilution assay; type: functional
# [2] = system: Escherichia coli; experiment: Antibacterial activity against Escherichia coli ATCC 25922 assessed as bacterial growth inhibition measured after 24 hrs by agar dilution assay; type: functional
# [3] = system: Enterobacter cloacae; experiment: Antibacterial activity against fosfomycin resistant Enterobacter cloacae assessed as bacterial growth inhibition measured after 24 hrs by agar dilution assay; type: functional
# [4] = system: Pseudomonas aeruginosa; experiment: Antibacterial activity against imipenem resistant Pseudomonas aeruginosa VIM-2 assessed as bacterial growth inhibition measured after 24 hrs by agar dilution assay; type: functional
# [5] = system: Enterococcus faecalis; experiment: Antibacterial activity against Enterococcus faecalis ATCC 29212 assessed as bacterial growth inhibition measured after 24 hrs by agar dilution assay; type: functional
# [6] = system: Enterococcus faecalis; experiment: Antibacterial activity against vancomycin resistant Enterococcus faecalis assessed as bacterial growth inhibition measured after 24 hrs by agar dilution assay; type: functional
# [7] = system: Salmonella typhimurium; experiment: Antibacterial activity against Salmonella typhi assessed as bacterial growth inhibition measured after 24 hrs by agar dilution assay; type: functional, Salmonella enterica subsp. enterica serovar […]; conditions: Salmonella enterica
# [8] = system: Citrobacter; experiment: Antibacterial activity against Citrobacter assessed as bacterial growth inhibition measured after 24 hrs by agar dilution assay; type: functional
# [9] = system: Serratia marcescens; experiment: Antibacterial activity against Serratia marcescens assessed as bacterial growth inhibition measured after 24 hrs by agar dilution assay; type: functional
# [10] = system: Escherichia coli; experiment: Antibacterial activity against ESBL-producing Escherichia coli assessed as bacterial growth inhibition measured after 24 hrs by agar dilution assay; type: functional
# [11] = system: Escherichia coli; experiment: Antibacterial activity against Escherichia coli MTCC 1687 assessed as bacterial growth inhibition measured after 24 hrs by microdilution assay; type: functional
# [12] = system: Staphylococcus aureus; experiment: Antibacterial activity against Staphylococcus aureus MLS16 MTCC 2940 assessed as bacterial growth inhibition measured after 24 hrs by microdilution assay; type: functional
# [13] = system: Staphylococcus aureus; experiment: Antibacterial activity against Staphylococcus aureus MTCC 737 assessed as bacterial growth inhibition measured after 24 hrs by microdilution assay; type: functional
# [14] = system: Escherichia coli; experiment: Potency index, ratio of ciprofloxacin MIC to test compound MIC for antimicrobial activity against Escherichia coli MTCC 1687 assessed as bacterial growth inhibition measured after 24 hrs by microdilution assay; type: functional
# [15] = system: Staphylococcus aureus; experiment: Potency index, ratio of ciprofloxacin MIC to test compound MIC for antimicrobial activity against Staphylococcus aureus MTCC 424 assessed as bacterial growth inhibition measured after 24 hrs by microdilution assay; type: functional
# [16] = system: Pseudomonas aeruginosa; experiment: Antibacterial activity against Pseudomonas aeruginosa MTCC 424 assessed as bacterial growth inhibition measured after 24 hrs by microdilution assay; type: functional
# [17] = system: Staphylococcus aureus; experiment: Potency index, ratio of ciprofloxacin MIC to test compound MIC for antimicrobial activity against Staphylococcus aureus MLS16 MTCC 2940 assessed as bacterial growth inhibition measured after 24 hrs by microdilution assay; type: functional
# [18] = system: Klebsiella pneumoniae; experiment: Antibacterial activity against Klebsiella pneumoniae assessed as bacterial growth inhibition by agar cup diffusion assay; type: functional
# [19] = system: Mycobacterium tuberculosis; experiment: Antimycobacterial activity against Mycobacterium tuberculosis H37Rv assessed as bacterial growth inhibition; type: functional
# [20] = system: Escherichia coli; experiment: Antibacterial activity against Escherichia coli assessed as bacterial growth inhibition by agar well diffusion assay; type: functional, organism-based
# [21] = system: Klebsiella pneumoniae; experiment: Antibacterial activity against Klebsiella pneumoniae assessed as zone of inhibition at 250 ug/ml by agar well diffusion assay; type: functional; conditions: read-out: IZ
# [22] = system: Pseudomonas aeruginosa; experiment: Antibacterial activity against Pseudomonas aeruginosa ATCC43288 assessed as bacterial growth inhibition measured after 18 to 24 hrs inhibition by broth microdilution assay; type: functional; conditions: time 18-24 hrs
# [23] = system: Staphylococcus aureus; experiment: Antibacterial activity against methicillin resistant Staphylococcus aureus ATCC 12493 assessed as bacterial growth inhibition by broth microdilution assay; type: functional
# [24] = system: Staphylococcus aureus; experiment: Antibacterial activity Staphylococcus aureus ATCC 25923 assessed as bacterial growth inhibition by broth microdilution assay; type: functional
# [25] = system: Acinetobacter baumannii; experiment: Antibacterial activity against Acinetobacter baumannii assessed as bacterial growth inhibition by broth microdilution assay; type: functional
# [26] = system: Staphylococcus aureus; experiment: Antibacterial activity against Staphylococcus aureus assessed as bacterial growth inhibition measured after 24 hrs by agar cup diffusion assay; type: functional
# [27] = system: Staphylococcus aureus; experiment: Antibacterial activity against Staphylococcus aureus AUMC B-73 assessed as bacterial growth inhibition by agar cup diffusion method; type: functional
# [28] = system: Pseudomonas aeruginosa; experiment: Antibacterial activity against Pseudomonas aeruginosa assessed as bacterial growth inhibition by agar well diffusion assay; type: functional, organism-based
# [29] = system: Escherichia coli; experiment: Antibacterial activity against Escherichia coli assessed as bacterial growth inhibition by serial dilution method; type: functional
# [30] = system: Staphylococcus aureus; experiment: Antibacterial activity against Staphylococcus aureus ATCC 25923 assessed as bacterial growth inhibition measured after 16 hrs by broth microdilution assay; type: functional
# [31] = system: Escherichia coli; experiment: Antibacterial activity against Escherichia coli assessed as bacterial growth inhibition by broth microdilution assay; type: functional
# [32] = system: Klebsiella pneumoniae; experiment: Antibacterial activity against Klebsiella pneumoniae AUMC B-77 assessed as bacterial growth inhibition by agar cup diffusion method; type: functional
# [33] = system: Mycobacterium tuberculosis; experiment: Antimycobacterial activity against multidrug Mycobacterium tuberculosis assessed as bacterial growth inhibition by LJ slant assay; type: functional
# [34] = system: Staphylococcus aureus; experiment: Antibacterial activity against Staphylococcus aureus assessed as bacterial growth inhibition by agar well diffusion assay; type: functional, organism-based
# [35] = system: Escherichia coli; experiment: Antibacterial activity against Escherichia coli ATCC35218 assessed as bacterial growth inhibition measured after 18 to 24 hrs inhibition by broth microdilution assay; type: functional; conditions: time 18-24 hrs
# [36] = system: Pseudomonas aeruginosa; experiment: Antibacterial activity against Pseudomonas aeruginosa assessed as bacterial growth inhibition measured after 20 hrs by serial dilution method; type: functional
# [37] = system: Mycobacterium tuberculosis; experiment: Antimycobacterial activity against extensive drug Mycobacterium tuberculosis assessed as bacterial growth inhibition by LJ slant assay; type: functional
# [38] = system: Pseudomonas aeruginosa; experiment: Antibacterial activity against Pseudomonas aeruginosa assessed as zone of inhibition at 250 ug/ml by agar well diffusion assay; type: functional; conditions: read-out: IZ
# [39] = system: Acinetobacter baumannii; experiment: Antibacterial activity against Acinetobacter baumannii assessed as bacterial growth inhibition by serial dilution method; type: functional
# [40] = system: Enterococcus faecalis; experiment: Antibacterial activity against Enterococcus faecalis assessed as zone of inhibition at 50 mg/ml by agar well diffusion assay; type: functional; conditions: read-out: IZ
# [41] = system: Pseudomonas aeruginosa; experiment: Antibacterial activity against Pseudomonas aeruginosa […] assessed as bacterial growth inhibition measured after 18 to 24 hrs inhibition by broth microdilution assay; type: functional; conditions: time 18-24 hrs
# [42] = system: Staphylococcus aureus; experiment: Antibacterial activity against Staphylococcus aureus assessed as bacterial growth inhibition by agar cup diffusion assay; type: functional
# [43] = system: Escherichia coli; experiment: Antibacterial activity against Escherichia coli assessed as zone of inhibition at 50 mg/ml cup plate assay; type: functional; conditions: read-out: IZ
# [44] = system: Streptococcus pneumoniae; experiment: Antibacterial activity against Streptococcus pneumoniae assessed as zone of inhibition at 50 mg/ml by agar well diffusion assay; type: functional; conditions: read-out: IZ
# [45] = system: Mycobacterium tuberculosis; experiment: Antimycobacterial activity against Mycobacterium tuberculosis H37Rv assessed as bacterial growth inhibition by LJ slant assay; type: functional
# [46] = system: Klebsiella pneumoniae; experiment: Antibacterial activity against Klebsiella pneumoniae assessed as bacterial growth inhibition by broth microdilution assay; type: functional
# [47] = system: Klebsiella pneumoniae; experiment: Antibacterial activity against Klebsiella pneumoniae assessed as bacterial growth inhibition by serial dilution method; type: functional
# [48] = system: Staphylococcus aureus; experiment: Antibacterial activity against methicillin resistant Staphylococcus aureus assessed as bacterial growth inhibition by microdilution assay; type: functional
# [49] = system: Staphylococcus aureus; experiment: Antibacterial activity against Staphylococcus aureus assessed as zone of inhibition at 50 mg/ml cup plate assay; type: functional; conditions: read-out: IZ
# [50] = system: Staphylococcus aureus; experiment: Antibacterial activity against Staphylococcus aureus assessed as zone of inhibition at 50 mg/ml by agar well diffusion assay; type: functional; conditions: read-out: IZ
# [51] = system: Staphylococcus aureus; experiment: Antibacterial activity against methicillin resistant Staphylococcus aureus assessed as bacterial growth inhibition by agar cup diffusion assay; type: functional
# [52] = system: Escherichia coli; experiment: Antibacterial activity against Escherichia coli assessed as bacterial growth inhibition measured after 20 hrs by serial dilution method; type: functional
# [53] = system: Klebsiella pneumoniae; experiment: Antibacterial activity against Klebsiella pneumoniae assessed as bacterial growth inhibition measured after 20 hrs by serial dilution method; type: functional
# [54] = system: Enterococcus faecalis; experiment: Antibacterial activity against Enterococcus faecalis assessed as bacterial growth inhibition by broth microdilution assay; type: functional
# [55] = system: Escherichia coli; experiment: Antibacterial activity against fluoroquinolone Escherichia coli assessed as bacterial growth inhibition by broth microdilution assay; type: functional
# [56] = system: Escherichia coli; experiment: Antibacterial activity against Escherichia coli assessed as zone of inhibition at 50 mg/ml by agar well diffusion assay; type: functional; conditions: read-out: IZ
# [57] = system: Pseudomonas aeruginosa; experiment: Antibacterial activity against Pseudomonas aeruginosa assessed as bacterial growth inhibition by agar cup diffusion assay; type: functional
# [58] = system: Staphylococcus aureus; experiment: Antibacterial activity against Staphylococcus aureus assessed as bacterial growth inhibition measured after 20 hrs by serial dilution method; type: functional
# [59] = system: Escherichia coli; experiment: Antibacterial activity against Escherichia coli ATCC 25922 assessed as zone of inhibition at 50 mg/ml by agar diffusion assay; type: functional; conditions: read-out: IZ
# [60] = system: Staphylococcus aureus; experiment: Antibacterial activity against Staphylococcus aureus assessed as zone of inhibition at 250 ug/ml by agar well diffusion assay; type: functional; conditions: read-out: IZ
# [61] = system: Escherichia coli; experiment: Antibacterial activity against Escherichia coli assessed as bacterial growth inhibition by agar cup diffusion assay; type: functional
compound,measurement,setting,value
CCOP(=O)(OCC)C(Nc1ncc(-c2cc3ccccc3oc2=O)s1)c1cc2ccccc2[nH]c1=O (centres undefined),MIC,[1],0.25 mg/L
same,MIC,[2],0.25 mg/L
same,MIC,[3],0.25 mg/L
same,MIC,[4],0.25 mg/L
CCOP(=O)(OCC)C(Nc1ncc(-c2cc3ccccc3oc2=O)s1)c1cc2cccc(C)c2[nH]c1=O (centres undefined),MIC,[5],0.25 mg/L
same,MIC,[6],0.25 mg/L
same,MIC,[3],0.25 mg/L
same,MIC,[7],0.25 mg/L
same,MIC,[8],0.25 mg/L
same,MIC,[9],0.25 mg/L
same,MIC,[4],0.25 mg/L
same,MIC,[10],0.25 mg/L
COc1ccc(-c2cc(-c3c(O)c4ccccc4[nH]c3=O)nc(N)c2C#N)cc1,MIC,[11],2.34 mg/L
same,MIC,[12],2.34 mg/L
same,MIC,[13],2.34 mg/L
same,Ratio,[14],2
same,Ratio,[15],2
same,MIC,[16],2.34 mg/L
same,Ratio,[17],2
O=C(O)c1cn(C2CC2)c2cc(N3CCNCC3)c(F)cc2c1=O [CIPROFLOXACIN],MIC,[18],1.9 mg/L
same,MIC,[19],11.2 mg/L
same,IC50,[20],17.5 µM
same,MIC,[20],1.06 mg/L
same,zone of inhibition at 250 µg/mL,[21],17 mm
same,MIC,[22],≤ 0.03 mg/L
same,MIC,[23],0.49 mg/L
same,MIC,[24],4 mg/L
same,MIC,[25],0.004 mg/L
same,MIC,[26],3.25 mg/L
same,MIC,[27],1.6 mg/L
same,MIC,[11],4.68 mg/L
same,IC50,[28],17.5 µM
same,MIC,[28],1.06 mg/L
same,MIC,[29],0.312 mg/L
same,MIC,[30],0.78 mg/L
same,MIC,[12],4.68 mg/L
same,MIC,[31],0.195 mg/L
same,MIC,[32],3.6 mg/L
same,MIC,[33],≥ 2 mg/L
same,IC50,[34],17.5 µM
same,MIC,[34],1.06 mg/L
same,MIC,[35],≤ 0.03 mg/L
same,MIC,[13],4.68 mg/L
same,MIC,[36],0.24 mg/L
same,MIC,[37],≥ 2 mg/L
same,zone of inhibition at 250 µg/mL,[38],17 mm
same,MIC,[39],0.312 mg/L
same,zone of inhibition at 50000 µg/mL,[40],30 mm
same,MIC,[41],≤ 0.03 mg/L
same,MIC,[42],0.5 mg/L
same,zone of inhibition at 50000 µg/mL,[43],13 mm
same,zone of inhibition at 50000 µg/mL,[44],30 mm
same,MIC,[45],≥ 2 mg/L
same,MIC,[46],0.004 mg/L
same,MIC,[47],0.312 mg/L
same,MIC,[48],0.5 mg/L
same,zone of inhibition at 50000 µg/mL,[49],11 mm
same,zone of inhibition at 50000 µg/mL,[50],33 mm
same,MIC,[51],5.49 mg/L
same,MIC,[52],0.24 mg/L
same,MIC,[53],0.24 mg/L
same,MIC,[54],0.72 mg/L
same,MIC,[55],0.72 mg/L
same,zone of inhibition at 50000 µg/mL,[56],33 mm
same,MIC,[57],8.62 mg/L
same,MIC,[58],0.24 mg/L
same,zone of inhibition at 50000 µg/mL,[59],26.3 mm
same,zone of inhibition at 250 µg/mL,[60],17 mm
same,MIC,[61],1.9 mg/L
